Results taken from ChEMBL document CHEMBL4428076 (J Med Chem, 2016).
Calls of active or inactive are those of the source. No cut-off for these calls is given here.

How the values were obtained:
Mus musculus [1] = experiment: Antinociceptive activity in CD-1 mouse assessed as increase in reaction time at 1.5 mg/kg, sc measured 15 mins post dose in presence of adrenergic alpha2 receptor antagonist yohimbine by radiant heat tail flick assay; type: functional, organism-based
[2] = Toxicity in CD-1 mouse assessed as inhibition of gastrointestinal transit by measuring distance traveled by charcoal at 4 mg/kg, sc followed by charcoal meal administration measured after 30 mins; type: organism-based; details: in vivo, 0.5 h
Mus musculus [3] = experiment: Antinociceptive activity in CD-1 mouse assessed as increase in reaction time at 1.5 mg/kg, sc measured 15 mins post dose in presence of opioid antagonist naloxone by radiant heat tail flick assay; type: functional, organism-based
Mus musculus [4] = experiment: Antinociceptive activity in sc dosed CD-1 mouse assessed as increase in reaction time administered four times per day for 5 days by radiant heat tail flick assay; type: functional; details: CD-1, sc, 120 h
[5] = biological target: 5-hydroxytryptamine receptor 7 (Homo sapiens) (UniProt P34969); experiment: Displacement of [3H]LSD from recombinant human 5HT7A receptor expressed in HEK cell membrane after 90 mins by microbeta scintillation counting method
5-hydroxytryptamine receptor 7 (Homo sapiens), sequence (P34969 whole entry): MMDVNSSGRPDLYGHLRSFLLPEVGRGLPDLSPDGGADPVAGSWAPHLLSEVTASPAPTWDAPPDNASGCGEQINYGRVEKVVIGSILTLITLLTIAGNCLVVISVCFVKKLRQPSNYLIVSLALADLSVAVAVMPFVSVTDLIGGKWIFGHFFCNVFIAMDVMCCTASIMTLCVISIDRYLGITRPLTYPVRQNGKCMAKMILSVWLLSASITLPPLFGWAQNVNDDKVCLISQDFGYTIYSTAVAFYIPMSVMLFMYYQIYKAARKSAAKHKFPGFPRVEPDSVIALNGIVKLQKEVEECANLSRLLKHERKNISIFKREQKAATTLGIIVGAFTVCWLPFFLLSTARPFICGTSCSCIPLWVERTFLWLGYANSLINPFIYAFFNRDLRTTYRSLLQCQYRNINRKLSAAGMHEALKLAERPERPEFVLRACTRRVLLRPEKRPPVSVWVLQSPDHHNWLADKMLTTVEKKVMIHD

[6] = biological target: T1, Delta-type opioid receptor (Mus musculus, UniProt P32300); experiment: Antagonist activity at mouse delta opioid receptor-1 expressed in CHO cell membranes assessed as inhibition of DPDPE-induced [35S]GTPgammaS binding incubated for 60 mins by scintillation spectroscopic analysis; type: functional
T1 sequence (P32300 whole entry): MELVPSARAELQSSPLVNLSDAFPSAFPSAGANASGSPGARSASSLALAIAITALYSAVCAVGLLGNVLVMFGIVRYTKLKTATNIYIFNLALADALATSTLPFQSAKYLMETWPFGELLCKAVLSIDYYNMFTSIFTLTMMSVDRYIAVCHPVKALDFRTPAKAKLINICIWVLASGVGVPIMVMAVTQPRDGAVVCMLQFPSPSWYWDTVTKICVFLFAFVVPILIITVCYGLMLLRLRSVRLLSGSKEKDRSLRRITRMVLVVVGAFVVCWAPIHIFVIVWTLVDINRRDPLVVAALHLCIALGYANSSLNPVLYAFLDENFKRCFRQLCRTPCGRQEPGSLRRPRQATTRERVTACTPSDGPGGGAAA

Mus musculus [7] = experiment: Potency index, ratio of morphine ED50 to compound ED50 in sc dosed CD-1 mouse; type: functional
[8] = Toxicity in CD-1 mouse assessed as inhibition of gastrointestinal transit by measuring distance traveled by charcoal at 1.5 mg/kg, sc followed by charcoal meal administration measured after 30 mins; type: organism-based; details: in vivo, 0.5 h
Mu-type opioid receptor [9] = biological target: Mu-type opioid receptor (Mus musculus, UniProt P42866); experiment: Agonist activity at mouse mu opioid receptor-1 expressed in CHO cell membranes assessed as [35S]GTPgammaS binding incubated for 60 mins by scintillation spectroscopic analysis; type: functional
Mu-type opioid receptor (Mus musculus, UniProt P42866), sequence (P42866 whole entry): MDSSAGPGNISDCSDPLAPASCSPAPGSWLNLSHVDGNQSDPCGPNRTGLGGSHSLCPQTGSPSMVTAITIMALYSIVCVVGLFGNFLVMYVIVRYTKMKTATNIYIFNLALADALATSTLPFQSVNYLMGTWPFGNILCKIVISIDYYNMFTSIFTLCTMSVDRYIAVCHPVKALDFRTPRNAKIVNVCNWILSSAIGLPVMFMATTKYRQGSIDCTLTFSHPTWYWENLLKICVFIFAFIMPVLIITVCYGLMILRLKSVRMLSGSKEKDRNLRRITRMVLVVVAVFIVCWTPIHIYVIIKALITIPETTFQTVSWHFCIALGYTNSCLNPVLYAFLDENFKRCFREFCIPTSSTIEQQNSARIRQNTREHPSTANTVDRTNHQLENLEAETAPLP

Mus musculus [10] = experiment: Antinociceptive activity in sc dosed CD-1 mouse assessed as increase in AUC of reaction time administered twice daily at dosing intervals of 12 hrs for 29 days by radiant heat tail flick assay relative to morphine; type: functional
Mus musculus [11] = experiment: Potency index, ratio of morphine ED50 to compound ED50 in icv dosed CD-1 mouse; type: functional
Mus musculus [12] = experiment: Antinociceptive activity in MOR-1 7TM/E1 splice variant knock out sc dosed C57BL/6 mouse assessed as increase in reaction time by radiant heat tail flick assay; type: functional; details: C57BL/6, sc
Mus musculus [13] = experiment: Antinociceptive activity in CD-1 mouse assessed as increase in reaction time at 1.5 mg/kg, sc administered on day 6 after DOR1-exon3 antisense oligodeoxynucleotide injection on day 1, 3 and 5 by radiant heat tail flick assay; type: functional, organism-based
Mu-type opioid receptor [14] = biological target: T2, Mu-type opioid receptor (Homo sapiens, UniProt P35372); experiment: Inhibition of DAMGO-induced beta-arrestin-2 recruitment at mu opioid receptor-1 (unknown origin) expressed in CHO cells preincubated for 30 mins followed by DAMGO addition measured after 90 mins by beta-galactosidase complementation assay; type: cell-based
T2 sequence (P35372 whole entry): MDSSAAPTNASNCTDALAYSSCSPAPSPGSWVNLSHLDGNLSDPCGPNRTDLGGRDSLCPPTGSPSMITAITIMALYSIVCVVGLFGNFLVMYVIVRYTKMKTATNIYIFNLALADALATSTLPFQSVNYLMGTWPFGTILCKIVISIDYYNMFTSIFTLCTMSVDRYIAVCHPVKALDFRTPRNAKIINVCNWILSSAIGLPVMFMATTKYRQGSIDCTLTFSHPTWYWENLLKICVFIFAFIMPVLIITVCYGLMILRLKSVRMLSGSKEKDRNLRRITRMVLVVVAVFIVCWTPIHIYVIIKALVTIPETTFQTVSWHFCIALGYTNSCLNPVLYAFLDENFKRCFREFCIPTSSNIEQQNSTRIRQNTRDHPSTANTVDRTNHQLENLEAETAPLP

[15] = biological target: T3, Alpha-2A adrenergic receptor (Homo sapiens) (UniProt P08913); experiment: Displacement of [3H]rauwolscine from recombinant human adrenergic alpha2A receptor expressed in MDCK cell membrane after 90 mins by microbeta scintillation counting method
T3 sequence (whole entry): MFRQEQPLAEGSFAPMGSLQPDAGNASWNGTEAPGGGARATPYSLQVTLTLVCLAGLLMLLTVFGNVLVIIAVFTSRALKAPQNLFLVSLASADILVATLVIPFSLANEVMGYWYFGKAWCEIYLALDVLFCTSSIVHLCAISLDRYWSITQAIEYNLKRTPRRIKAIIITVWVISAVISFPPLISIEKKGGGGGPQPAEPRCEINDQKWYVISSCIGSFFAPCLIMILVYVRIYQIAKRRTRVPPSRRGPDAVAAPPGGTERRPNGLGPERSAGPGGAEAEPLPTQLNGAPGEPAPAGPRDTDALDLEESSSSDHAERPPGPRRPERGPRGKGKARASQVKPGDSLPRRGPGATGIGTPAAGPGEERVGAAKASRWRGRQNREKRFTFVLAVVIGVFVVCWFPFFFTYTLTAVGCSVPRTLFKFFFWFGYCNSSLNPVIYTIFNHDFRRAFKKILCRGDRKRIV

Mus musculus [16] = experiment: Antinociceptive activity in CD-1 mouse assessed as increase in reaction time at 1.5 mg/kg, sc administered on day 6 after MOR1-exon1 antisense oligodeoxynucleotide injection on day 1, 3 and 5 by radiant heat tail flick assay; type: functional, organism-based
[17] = biological target: T1, Delta-type opioid receptor; experiment: Displacement of [125I]-IBNtxA from mouse delta opioid receptor-1 expressed in CHO cell membranes incubated for 90 mins
[18] = Toxicity in CD-1 mouse assessed as physical dependence by measuring number of jumps at 1.5 mg/kg, sc bid for 29 days followed by opioid antagonist naloxone injection on day 29 measured for 15 mins post last dose; type: organism-based; details: in vivo, 0.25 h
[19] = biological target: Kappa-type opioid receptor (Mus musculus, UniProt P33534); experiment: Displacement of [125I]-IBNtxA from mouse kappa opioid receptor-1 expressed in CHO cell membranes incubated for 90 mins
Kappa-type opioid receptor, sequence (P33534 whole entry): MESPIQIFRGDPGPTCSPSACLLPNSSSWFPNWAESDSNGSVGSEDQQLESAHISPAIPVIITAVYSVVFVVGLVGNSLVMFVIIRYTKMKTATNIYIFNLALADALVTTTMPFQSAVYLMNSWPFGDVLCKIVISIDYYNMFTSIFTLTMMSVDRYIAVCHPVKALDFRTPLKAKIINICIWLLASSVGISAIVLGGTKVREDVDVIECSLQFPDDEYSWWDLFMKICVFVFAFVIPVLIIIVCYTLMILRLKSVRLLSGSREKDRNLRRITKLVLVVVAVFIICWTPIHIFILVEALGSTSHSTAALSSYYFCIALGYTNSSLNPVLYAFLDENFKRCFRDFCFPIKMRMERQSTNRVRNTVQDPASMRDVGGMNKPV

Mus musculus [20] = experiment: Antinociceptive activity in sc dosed CD-1 mouse assessed as increase in latency latency to respond with hind paw lick or shake/flutter measured 15 mins post dose by hot plate test; type: functional; details: CD-1, sc, 0.25 h
Mus musculus [21] = experiment: Antinociceptive activity in icv dosed CD-1 mouse assessed as increase in reaction time measured 15 mins post dose by radiant heat tail flick assay; type: functional
[22] = Toxicity in CD-1 mouse assessed as physical dependence by measuring number of jumps at 1.5 mg/kg, sc bid for 22 days followed by opioid antagonist naloxone injection on day 22 measured for 15 mins post last dose; type: organism-based; details: in vivo, 0.25 h
Mu-type opioid receptor [23] = biological target: T2, Mu-type opioid receptor; experiment: Activation of mu opioid receptor-1 (unknown origin) expressed in CHO cells assessed as beta-arrestin-2 recruitment at 10 uM after 90 mins by beta-galactosidase complementation assay; type: cell-based; details: 1.5 h
Mus musculus [24] = experiment: Antinociceptive activity in sc dosed CD-1 mouse assessed as increase in reaction time administered twice daily at dosing intervals of 12 hrs for 29 days by radiant heat tail flick assay; type: functional; details: CD-1, sc
Mus musculus [25] = experiment: Ratio of ED50 for sc dosed CD-1 mouse administered twice daily at dosing intervals of 12 hrs for 5 days to ED50 for sc dosed CD-1 mouse measured 15 mins post dose; type: functional
[26] = Toxicity in C57BL/6 mouse assessed as decrease in respiratory rate at 1.2 mg/kg, sc measured at 15 to 35 mins post dose; type: organism-based; details: in vivo
Mus musculus [27] = experiment: Antinociceptive activity in CD-1 mouse assessed as time required for peak effect at 1.5 mg/kg, sc by radiant heat tail flick assay; type: functional
Mus musculus [28] = experiment: Antinociceptive activity in CD-1 mouse assessed as increase in reaction time at 1.5 mg/kg, sc administered on day 6 after KOR1-exon2 antisense oligodeoxynucleotide injection on day 1, 3 and 5 by radiant heat tail flick assay; type: functional, organism-based
[29] = Toxicity in C57BL/6 mouse assessed as decrease in respiratory rate at 3 mg/kg, sc measured at 15 to 35 mins post dose relative to control; type: organism-based; design: scale not given: the % may be the effect or the level left; details: in vivo

**Q.** What does the source list for `CC[C@@H]1CN2CC[C@]3(Nc4cccc(OC)c4C3=O)[C@@H]2C[C@@H]1/C(=C\OC)C(=O)OC`?
**A.** Activity (Mus musculus [1]): Active; Activity [2]: Non-Toxic; Activity (Mus musculus [3]): inactive; ED50 (Mus musculus [4]): 1.6 mg/kg; inhibition [5]: Active; IC50 [6]: 61 nM; Ratio ED50 (Mus musculus [7]): 3; Activity [8]: Toxic; EC50 (Mu-type opioid receptor [9]): 1.7 nM; fold change (FC) (Mus musculus [10]): 6; Ratio ED50 (Mus musculus [11]): 1.5; ED50 (Mus musculus [12]): > 30 mg/kg; Activity (Mus musculus [13]): Active; IC50 (Mu-type opioid receptor [14]): 34 nM; inhibition (Mu-type opioid receptor [14]): Dose-dependent effect; inhibition [15]: Active; Activity (Mus musculus [16]): inactive; Ki [17]: 3 nM; Activity [18]: 14; Ki [19]: 24 nM; ED50 (Mus musculus [20]): 0.99 mg/kg; ED50 (Mus musculus [21]): 0.38 µg; Activity [22]: 13; Activity (Mu-type opioid receptor [23]): Not Active; ED50 (Mus musculus [24]): 4.5 mg/kg; Ratio ED50 (Mus musculus [25]): <2; Activity [26]: Non-Toxic; Time (Mus musculus [27]): 15 min; Activity (Mus musculus [28]): Active; Activity [29]: 15%
